Assays:
[1] = tested on: methamphetamine-induced locomotor hyperactivity in mice; test: Inhibition test of methamphetamine-induced locomotor hyperactivity; format: in vivo; details: test compound 10 mg/kg body weight orally, male ICR mice; methamphetamine 2 mg/kg s.c. 60 min later; locomotor activity counted over 150 min, versus vehicle group
Method: Inhibition test of methamphetamine-induced locomotor hyperactivity
The compound of the present invention can be evaluated by assessing its capacity to inhibit methamphetamine-induced locomotor hyperactivity in mice. The method of Okuyama et al (Life Science, Vol. 65, p. 2109-2125 (1999)) was modified and used for testing the inhibition of methamphetamine-induced locomotor hyperactivity.
Locomotor activity was measured using a 32-channel locomotor activity measurement device MDC-LT (BrainScience Idea Co., Ltd.), which emits infrared beams from the top of a cage (30 x 40 x 20 cm). 6- to 8-Week-old male ICR mice were acclimated for at least 45 min in the measurement cages, and then either test compound (10 mg/kg body weight) dissolved in vehicle (0.5% aqueous methylcellulose solution) or the vehicle alone was orally administered. This oral administration was followed 60 min later by subcutaneous administration of methamphetamine (2 mg/kg body weight).
The number of times the laboratory animals passed through the infrared beams emitted inside the measurement cages in 150 min after administration of the test compound or vehicle was counted to quantify locomotor activity. The methamphetamine-induced locomotor hyperactivity inhibition rate (activity inhibition rate (%)) was calculated by the following equation. Activity inhibition rate (%) = {1-(locomotor activity of test compound treatment group after treatment with methamphetamine÷locomotor activity of vehicle treatment group after treatment with methamphetamine)}x 100 [formula] The results are shown in Table 3

human GPR52 = target: T1, human GPR52 (Homo sapiens, UniProt Q9Y2T5); test: Increase of intracellular cAMP concentration in human GPR52-expressing CHO cell (AlphaScreen cAMP assay); format: cell-based; details: human GPR52-expressing CHO(dhfr-) cells; for activity at 1 µM: CHO, 1µM test compound, 100% = cAMP with 1 µM Reference Example 79, 0% = DMSO, 37°C, 30 min, read-out: GPR52 agonist activity (%); for EC50: concentration of the test compound at which it shows 50% activity, read-out: GPR52 agonist activity EC50
T1 construct: expressed in transfected cells; host or cells: CHO(dhfr-) cells
T1 sequence (Q9Y2T5 whole entry): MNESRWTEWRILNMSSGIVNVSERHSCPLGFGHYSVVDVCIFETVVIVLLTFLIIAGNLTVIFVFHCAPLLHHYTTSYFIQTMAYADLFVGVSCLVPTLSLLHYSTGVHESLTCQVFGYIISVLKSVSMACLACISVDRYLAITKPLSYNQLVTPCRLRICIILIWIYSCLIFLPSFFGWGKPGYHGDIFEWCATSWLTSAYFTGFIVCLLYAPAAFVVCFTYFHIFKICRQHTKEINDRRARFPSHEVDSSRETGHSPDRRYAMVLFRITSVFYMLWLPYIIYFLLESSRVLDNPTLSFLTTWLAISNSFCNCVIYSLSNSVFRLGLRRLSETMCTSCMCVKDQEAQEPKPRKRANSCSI
Outline: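 1×10^4 GPR52-expressing CHO(dhfr-) cells incubated 30 min at 37 °C with compound (10^-5 µM–10 µM) in HBSS, 0.5% BSA, 100 µM IBMX, 100 µM Ro20-1724, 5 mM HEPES pH 7.55; cAMP read by AlphaScreen. Agonism normalized to 1 µM reference agonist (100%) and DMSO (0%).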

| Structure (SMILES) | activity at 1 µM (human GPR52) | EC50 (human GPR52) | Activity inhibition rate (%) [1] |
| --- | --- | --- | --- |
| COCCNC(=O)c1cn(-c2cccc3cc(Cc4cccc(C(F)(F)F)c4)sc23)nc1C [Example 14, N-(2-methoxyethyl)-3-methyl-1-[2-[3-(trifluoromethyl)benzyl]-1-benzothiophen-7-yl]-1H-pyrazole-4-carboxamide] | 87% | 14 nM | 53% |
| Cc1nn(-c2cccc3cc(Cc4cccc(C(F)(F)F)c4)sc23)cc1C(N)=O [Example 17, 3-methyl-1-[2-[3-(trifluoromethyl)benzyl]-1-benzothiophen-7-yl]-1H-pyrazole-4-carboxamide] | 96% | 11 nM | 43% |
| Cc1nn(-c2cccc3cc(Cc4cccc(C(F)(F)F)c4)sc23)cc1C(=O)NCCO [Example 15, N-(2-hydroxyethyl)-3-methyl-1-[2-[3-(trifluoromethyl)benzyl]-1-benzothiophen-7-yl]-1H-pyrazole-4-carboxamide] | 102% | 5.7 nM | 48% |
| Cc1nn(-c2cccc3cc(Cc4cc(F)cc(F)c4)sc23)c(C)c1C(N)=O [Example 100, 1-[2-(3,5-difluorobenzyl)-1-benzothiophen-7-yl]-3,5-dimethyl-1H-pyrazole-4-carboxamide] | 104% | – | – |
| O=C(NCCO)c1cn(-c2cccc3cc(Cc4cccc(C(F)(F)F)c4)sc23)nc1C1CC1 [Example 29, 3-cyclopropyl-N-(2-hydroxyethyl)-1-[2-[3-(trifluoromethyl)benzyl]-1-benzothiophen-7-yl]-1H-pyrazole-4-carboxamide] | 97% | – | – |
| Cc1nn(-c2cccc3sc(Cc4cc(F)cc(Cl)c4)cc23)c(C)c1C(=O)NCCO [Example 108, 1-[2-(3-chloro-5-fluorobenzyl)-1-benzothiophen-4-yl]-N-(2-hydroxyethyl)-3,5-dimethyl-1H-pyrazole-4-carboxamide] | 93% | – | – |
| Cc1nn(-c2cccc3nn(Cc4cccc(C(F)(F)F)c4)cc23)c(C)c1C(N)=O [Example 78, 3,5-dimethyl-1-[2-[3-(trifluoromethyl)benzyl]-2H-indazol-4-yl]-1H-pyrazole-4-carboxamide] | 104% | – | – |
| Cc1nn(-c2cccc3nn(Cc4cc(F)cc(Cl)c4)cc23)c(C)c1C(N)=O [Example 81, 1-[2-(3-chloro-5-fluorobenzyl)-2H-indazol-4-yl]-3,5-dimethyl-1H-pyrazole-4-carboxamide] | 102% | – | – |
| Cc1cccc(Cc2cc3cccc(-n4nc(C)c(C(N)=O)c4C)c3s2)c1 [Example 95, 3,5-dimethyl-1-[2-(3-methylbenzyl)-1-benzothiophen-7-yl]-1H-pyrazole-4-carboxamide] | 95% | – | – |

Further lines, with some results ahead:

| activity at 1 µM (human GPR52) | EC50 (human GPR52) | Structure (SMILES) | Activity inhibition rate (%) [1] |
| --- | --- | --- | --- |
| 99% | – | Cc1nn(-c2cccc3cc(Cc4cccc(C(F)(F)F)c4)sc23)c(CO)c1C(=O)NCCO [Example 65, N-(2-hydroxyethyl)-5-(hydroxymethyl)-3-methyl-1-[2-[3-(trifluoromethyl)benzyl]-1-benzothiophen-7-yl]-1H-pyrazole-4-carboxamide] | 51% |
| 92% | 40 nM | Cc1nn(-c2ccc(F)c3cc(Cc4cccc(C(F)(F)F)c4)sc23)c(C)c1C(=O)NCC(N)=O [Example 58, N-(2-amino-2-oxoethyl)-1-[4-fluoro-2-[3-(trifluoromethyl)benzyl]-1-benzothiophen-7-yl]-3,5-dimethyl-1H-pyrazole-4-carboxamide] | 47% |
| 93% | – | Cc1nn(-c2cccc3sc(Cc4cccc(C(F)(F)F)c4)cc23)c(C)c1C(N)=O [Example 104, 3,5-dimethyl-1-[2-[3-(trifluoromethyl)benzyl]-1-benzothiophen-4-yl]-1H-pyrazole-4-carboxamide] | – |
| 99% | 13 nM | Cc1nn(-c2cccc3cc(Cc4cc(F)cc(F)c4)sc23)c(C)c1C(=O)NCCO [Example 99, 1-[2-(3,5-difluorobenzyl)-1-benzothiophen-7-yl]-N-(2-hydroxyethyl)-3,5-dimethyl-1H-pyrazole-4-carboxamide] | – |
| 98% | – | Cc1nn(-c2cccc3nn(Cc4cccc(C(F)(F)F)c4)cc23)c(C)c1C(=O)NCC(N)=O [Example 80, N-(2-amino-2-oxoethyl)-3,5-dimethyl-1-[2-[3-(trifluoromethyl)benzyl]-2H-indazol-4-yl]-1H-pyrazole-4-carboxamide] | – |
| 70% | 290 nM | Cc1nc(-c2cccc3cc(Cc4cccc(C(F)(F)F)c4)sc23)oc1C(=O)NCC(N)=O [Example 11, N-(2-amino-2-oxoethyl)-4-methyl-2-[2-[3-(trifluoromethyl)benzyl]-1-benzothiophen-7-yl]-1,3-oxazole-5-carboxamide] | – |
| 98% | – | Cc1nn(-c2cccc3oc(Cc4cccc(C(F)(F)F)c4)cc23)c(C)c1C(=O)NCC(N)=O [Example 74, N-(2-amino-2-oxoethyl)-3,5-dimethyl-1-[2-[3-(trifluoromethyl)benzyl]-1-benzofuran-4-yl]-1H-pyrazole-4-carboxamide] | – |
| 105% | – | Cc1nn(-c2ccc(F)c3cc(Cc4cccc(C(F)(F)F)c4)sc23)c(C)c1C(=O)NCCO [Example 62, 1-[4-fluoro-2-[3-(trifluoromethyl)benzyl]-1-benzothiophen-7-yl]-N-(2-hydroxyethyl)-3,5-dimethyl-1H-pyrazole-4-carboxamide] | – |
| 79% | – | Cc1c(C(N)=O)nc(-c2cccc3cc(Cc4cccc(C(F)(F)F)c4)sc23)n1C [Example 50, 1,5-dimethyl-2-[2-[3-(trifluoromethyl)benzyl]-1-benzothiophen-7-yl]-1H-imidazole-4-carboxamide] | – |
